Experimental data reported in patent US11298412B2, “Sphingoid compounds for prophylaxis and/or therapy of coronaviridae infection” (priority 2020, dated 2022).
“Also recorded” adds a separate entry of the source.

Assays:
[1] = tested on: lymphocytic choriomeningitis virus (LCMV); assay type: cell-based, LCMV strain WE
recombinant ACE2 = target: T1, recombinant ACE2 (Homo sapiens, UniProt Q9BYF1); assay: Binding of lipids to immobilized recombinant ACE2; conditions: sphingosine at 2 μM
T1 construct: purchased Abcam ab273687

rhinovirus 2 (RV2) = assay: RV2 infection of freshly isolated human epithelial cells, Hela cytotoxicity readout; assay type: cell-based; conditions: 10 μM or 20 μM, 24 hrs
Experimental: (§1) 10^4 PFU of Rhinovirus 2 or 14 (RV2, RV14) were incubated with freshly isolated human epithelial cells for 24 hrs in the presence of 10 μM or 20 μM sphingosine (SPH) or the corresponding concentration of the solvent octylglucopyranoside (OGP), the cells were pelleted, supernatants completely removed, the cell pellets resuspended in PBS and added to Hela cells. Cells were incubated for 3 days and cytotoxicity as measurement for virus titers was determined. Shown is the mean±SD, n=4, *p<0.001 ANOVA.

rhinovirus 14 (RV14) = assay: RV14 infection of freshly isolated human epithelial cells, Hela cytotoxicity readout; assay type: cell-based; conditions: 10 μM or 20 μM, 24 hrs
Experimental: as §1

[2] = tested on: rhinovirus strain RV14 (major strain); assay: Rhinovirus RV14 infection of Hela cells, Trypan Blue cell death; assay type: cell-based; conditions: 10 μM and 20 μM, added 10 min before or 60 min or 240 min after infection, 4 days
RV1b = assay: Binding of sphingosine to RV1b immobilized on agarose beads, remaining sphingosine by kinase assay; design: species or system rhinovirus; conditions: 250 μM sphingosine in PBS pH 7.0; 4 hrs at 4° C.
Experimental: As a complement to the above study, RV1b (obtained from ATCC) were immobilized to agarose beads and tested for binding of sphingosine (SPH). To this end, we incubated 1 μg/ml anti-RV1b antibodies with 10^6 CFU RV1b for 1 h at 4° C. in H/S, added 50 μL agarose protein A/G beads (Santa Cruz Inc.), incubated for an additional 1 h at 4° C. and washed the immobilized precipitates 5-times in H/S. We resuspended the beads in 500 μL PBS (pH 7.0) containing 250 μM sphingosine. Samples were incubated for 4 hrs at 4° C., pelleted and aliquots of the supernatants were added to 50 mM HEPES (pH 7.4), 250 mM NaCl, 30 mM MgCl2, 0.001 units sphingosine kinase (R&D), 1 mM ATP and 10 μCi [^32P]γATP. The kinase reaction was performed for 1 hr at 30° C., stopped by addition of 20 μl 1N HCl, 800 μl CHCl3/CH3OH/1N HCl (100:200:1, v/v/v), 240 μl CHCl3 and 2 M KCl. Phases were separated, the lower phase was collected, dried, dissolved in 20 μL of CHCl3:CH3OH (1:1, v/v) and separated on Silica G60 thin layer chromatography (TLC) plates using CHCl3/CH3OH/acetic acid/H2O (90:90:15:5, v/v/v/v). The TLC plates were exposed to radiography films, spots were removed from the plates, and the incorporation of [^32P] into sphingosine measured by liquid scintillation counting. Sphingosine was determined using a standard curve of C18-SPH. […]

[3] = target: T2, receptor binding domain of spike S1 / ACE2 (Homo sapiens, UniProt Q9BYF1); assay: Binding of recombinant RBD of spike S1 to immobilized Fc-ACE2, western blot
T2 construct: purchased Abcam (Fc-ACE2); Sino Biologicals (RBD-spike) ab273687 (Fc-ACE2); MA FE2702B, #40150-R007 (as printed for RBD-spike)
T2 sequence (Q9BYF1 18-740): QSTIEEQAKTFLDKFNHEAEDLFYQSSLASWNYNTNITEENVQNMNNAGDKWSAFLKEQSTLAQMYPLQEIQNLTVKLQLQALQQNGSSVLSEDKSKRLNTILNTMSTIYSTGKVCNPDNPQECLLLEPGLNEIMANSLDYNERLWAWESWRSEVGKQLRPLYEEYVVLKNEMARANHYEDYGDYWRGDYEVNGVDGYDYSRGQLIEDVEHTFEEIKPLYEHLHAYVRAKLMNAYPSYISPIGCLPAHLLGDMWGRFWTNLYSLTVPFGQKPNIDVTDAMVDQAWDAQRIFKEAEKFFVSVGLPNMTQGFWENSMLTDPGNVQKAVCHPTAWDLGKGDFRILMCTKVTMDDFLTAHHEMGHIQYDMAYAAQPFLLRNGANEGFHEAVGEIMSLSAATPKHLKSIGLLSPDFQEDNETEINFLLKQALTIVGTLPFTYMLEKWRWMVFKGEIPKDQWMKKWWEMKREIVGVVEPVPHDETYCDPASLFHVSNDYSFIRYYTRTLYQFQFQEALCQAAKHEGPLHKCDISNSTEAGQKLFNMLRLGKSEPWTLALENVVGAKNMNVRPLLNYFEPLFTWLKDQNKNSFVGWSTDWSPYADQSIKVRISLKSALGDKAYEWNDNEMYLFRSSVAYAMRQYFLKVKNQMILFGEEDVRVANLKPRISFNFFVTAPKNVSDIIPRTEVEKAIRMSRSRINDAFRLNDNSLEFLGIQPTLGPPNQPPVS

T1 sequence (Q9BYF1 18-805): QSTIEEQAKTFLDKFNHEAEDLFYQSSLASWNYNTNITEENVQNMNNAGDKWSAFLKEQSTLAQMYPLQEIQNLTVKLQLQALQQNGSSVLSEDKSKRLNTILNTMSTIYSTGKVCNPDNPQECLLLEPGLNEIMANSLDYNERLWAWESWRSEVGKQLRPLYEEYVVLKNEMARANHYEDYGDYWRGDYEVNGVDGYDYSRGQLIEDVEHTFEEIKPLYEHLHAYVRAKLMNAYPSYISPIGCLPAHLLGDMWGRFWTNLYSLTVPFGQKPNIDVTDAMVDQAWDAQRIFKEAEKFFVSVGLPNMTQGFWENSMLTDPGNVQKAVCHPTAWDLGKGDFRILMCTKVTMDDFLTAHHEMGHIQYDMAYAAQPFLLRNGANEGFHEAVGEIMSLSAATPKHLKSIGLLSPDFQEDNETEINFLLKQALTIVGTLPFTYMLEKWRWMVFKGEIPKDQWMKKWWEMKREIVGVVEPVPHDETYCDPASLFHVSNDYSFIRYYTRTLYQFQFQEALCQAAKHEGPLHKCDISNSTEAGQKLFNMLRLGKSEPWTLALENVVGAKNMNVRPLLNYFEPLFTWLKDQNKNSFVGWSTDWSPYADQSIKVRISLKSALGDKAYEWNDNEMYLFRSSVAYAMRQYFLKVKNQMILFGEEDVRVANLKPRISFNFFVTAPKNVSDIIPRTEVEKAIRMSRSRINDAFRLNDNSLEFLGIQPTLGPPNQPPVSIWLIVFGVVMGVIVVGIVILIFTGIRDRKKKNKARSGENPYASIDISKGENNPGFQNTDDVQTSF

How did the “propagation of LCMV (infectious LCMV particles in the supernatant)” value [1] turn out when CCCCCCCCCCCCC/C=C/[C@@H](O)[C@@H](N)CO [sphingosine, (2S,3R,4E)-2-amino-4-octadecene-1,3-diol] was run?
Its value is “reduced propagation of LCMV; also recorded: inhibits the propagation of LCMV”.

And the “binding of lipid to immobilized recombinant ACE2 (beads)” value (recombinant ACE2)?
The value was “revealed a binding of sphingosine to ACE2; also recorded: selectively couples to beads with bound recombinant ACE2; also recorded: binds the ACE2 receptor”.

What about the “infection of human epithelial cells by RV2” value (rhinovirus 2 (RV2)) of the same compound?
The value was “abrogates infection of human epithelial cells; also recorded: prevents infection of freshly isolated human nasal epithelial cells”.

What about the “infection of human epithelial cells by RV14” value (rhinovirus 14 (RV14)) of the same compound?
The value was “abrogates infection of human epithelial cells; also recorded: prevents infection of freshly isolated human nasal epithelial cells”.

What about the “infection with RV14 (percentage of dead cells)” value [2] of the same compound?
Its value is “prevented the infection; also recorded: prevention of RSV2 and RSV14 infection”.

What about the “binding of sphingosine to RV1b-coupled agarose beads (remaining sphingosine in the supernatant)” value (RV1b) of the same compound?
Its value is “efficiently bind sphingosine”.

What about the “binding of recombinant receptor binding domain of spike S1 to ACE2” value ([3]; immobilized Fc-ACE2 pre-incubated with 1 μM or 2 μM sphingosine) of the same compound?
The value was “prevented binding of recombinant receptor binding domain of spike S1 to ACE2”.

What about the “binding of the recombinant RBD of spike S1 to ACE2” value ([3]; immobilized Fc-ACE2 pre-incubated with 2 μM sphingosine) of the same compound?
Its value is “reduced binding of the recombinant RBD of spike S1 to ACE2”.
